By AC50 is commonly meant the concentration at which the activity in the assay is half-maximal.

The target of the first test is T1, human PAH with the R408W mutation (Homo sapiens, UniProt P00439, R408W).
T1 construct: expressed in transfected cells
T1 sequence (P00439 1-452 R408W): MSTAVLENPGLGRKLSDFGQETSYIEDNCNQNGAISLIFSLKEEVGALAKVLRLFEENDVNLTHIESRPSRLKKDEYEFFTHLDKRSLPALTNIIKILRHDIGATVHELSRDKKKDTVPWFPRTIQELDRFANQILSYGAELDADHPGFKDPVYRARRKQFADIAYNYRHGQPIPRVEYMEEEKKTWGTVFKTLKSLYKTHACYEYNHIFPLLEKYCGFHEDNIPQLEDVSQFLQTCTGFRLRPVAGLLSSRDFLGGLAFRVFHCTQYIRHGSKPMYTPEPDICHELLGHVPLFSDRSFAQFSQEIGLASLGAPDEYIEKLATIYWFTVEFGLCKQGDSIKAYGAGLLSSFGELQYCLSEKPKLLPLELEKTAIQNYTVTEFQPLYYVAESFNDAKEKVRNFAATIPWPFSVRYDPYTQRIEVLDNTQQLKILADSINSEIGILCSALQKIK
Description: Cell Based Phenylalanine Flux Assay.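 Note: Ten-point dose curve from 2-fold serial dilutions, run in duplicate at 0.5% DMSO final, tracer step used 20 µM sepiapterin and 800 µM labeled phenylalanine.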 The following applies: A375 cells expressing human R408W PAH; 24 hrs compound incubation; 13C-Tyrosine by LC-MS; average where tested multiple times; read-out: AC50.
As for `CC(F)(F)c1ncc(C(=O)N2CCc3[nH]cnc3[C@@H]2c2cc3ccccn3n2)s1` [Example 613, (R)-(2-(1,1-difluoroethyl)thiazol-5-yl)(4-(pyrazolo [1,5-a]pyridin-2-yl)-6,7-dihydro-1H-imidazo[4,5-c]pyridin-5(4H)-yl)methanone], the AC50 lay in the range of 1 to 5 µM. On to `O=C(c1oc(-c2ccccn2)nc1C1CC1)N1CCc2[nH]cnc2[C@H]1c1cc2ccccn2n1` [Example 622, (S)-(4-cyclopropyl-2-(pyridin-2-yl)oxazol-5-yl)(4-(pyrazolo[1,5-a]pyridin-2-yl)-6,7-dihydro-1H-imidazo[4,5-c]pyridin-5(4H)-yl)methanone], for which the concentration at half-maximal activity (AC50) was in the range of 0.5 to 1 µM.

`O=C(CC1CC(F)C1)N1CCc2[nH]cnc2[C@H]1c1cc2ccccn2n1` (stereo partly drawn) [Example 636, (S)-2-(3-fluorocyclobutyl)-1-(4-(pyrazolo[1,5-a]pyridin-2-yl)-6,7-dihydro-1H-imidazo [4,5-c]pyridin-5(4H)-yl)ethenone]: the AC50 was less than 0.5 µM.

On to `O=C(CC1CC(F)C1)N1CCc2[nH]cnc2[C@@H]1c1cc2ccccn2n1` (stereo partly drawn) [Example 637, (R)-2-(3-fluorocyclobutyl)-1-(4-(pyrazolo[1,5-a]pyridin-2-yl)-6,7-dihydro-1H-imidazo [4,5-c]pyridin-5(4H)-yl)ethanone], for which the AC50 was in the range of 1 to 5 µM. With `Cc1cc(F)ccc1-c1nnc(C(=O)N2CCc3[nH]cnc3[C@@H]2c2cc3ccccn3n2)o1` [Example 655, (R)-(5-(4-fluoro-2-methylphenyl)-1,3,4-oxadiazol-2-yl)(4-(pyrazolo [1,5-a]pyridin-2-yl)-6,7-dihydro-1H-imidazo[4,5-c]pyridin-5(4H)-yl)methanone], the concentration at half-maximal activity (AC50) lay in the range of 1 to 5 µM. In the case of `Cn1ccc(-c2nnc(C(=O)N3CCc4[nH]cnc4[C@H]3c3cc4ccccn4n3)o2)n1` [Example 658, (S)-(5-(1-methyl-1H-pyrazol-3-yl)-1,3,4-oxadiazol-2-yl)(4-(pyrazolo[1,5-a]pyridin-2-yl)-6,7-dihydro-1H-imidazo[4,5-c]pyridin-5(4H)-yl)methanone], the AC50 lay in the range of 1 to 5 µM. Same read-out and setting: in the case of `Cn1nc(Cl)cc1C(=O)N1CCc2[nH]cnc2[C@@H]1c1cc2ccccn2n1` [Example 681, (R)-(3-chloro-1-methyl-1H-pyrazol-5-yl)(4-(pyrazolo [1,5-a]pyridin-2-yl)-6,7-dihydro-1H-imidazo[4,5-c]pyridin-5(4H)-yl)methanone] it was more than 5 µM; in that of `N#Cc1ncoc1C(=O)N1CCc2[nH]cnc2[C@@H]1c1cc2ccc(Cl)cn2n1` [Example 685, (R)-5-(4-(6-chloropyrazolo [1,5-a]pyridin-2-yl)-4,5,6,7-tetrahydro-1H-imidazo[4,5-c]pyridine-5-carbonyl) oxazole-4-carbonitrile], more than 5 µM; in that of `C[C@@H](O)c1nc(C(F)F)c(C(=O)N2CCc3[nH]cnc3[C@@H]2c2cc3ccccn3n2)o1` [Example 691, (4-(difluoromethyl)-2-((R)-1-hydroxyethyl)oxazol-5-yl)((R)-4-(pyrazolo[1,5-a]pyridin-2-yl)-6,7-dihydro-1H-imidazo[4,5-c]pyridin-5(4H)-yl)methanone], more than 5 µM. On the same count and under the same terms, in the case of `CC(C)(C#N)c1nc(C(F)F)c(C(=O)N2CCc3[nH]cnc3[C@@H]2c2cc3ccccn3n2)o1` [Example 698, (R)-2-(4-(difluoromethyl)-5-(4-(pyrazolo[1,5-a]pyridin-2-yl)-4,5,6,7-tetrahydro-1H-imidazo[4,5-c]pyridine-5-carbonyl)oxazol-2-yl)-2-methylpropanenitrile] it was 1 to 5 µM; in that of `C[C@@H](O)c1nc(C(F)F)c(C(=O)N2CCc3[nH]cnc3[C@@H]2c2cc3c(Cl)cccn3n2)o1` [Example 703, ((R)-4-(4-chloropyrazolo [1,5-a]pyridin-2-yl)-6,7-dihydro-1H-imidazo[4,5-c]pyridin-5(4H)-yl)(4-(difluoromethyl)-2-((R)-1-hydroxyethyl)oxazol-5-yl)methanone], 1 to 5 µM; in that of `O=C(c1oc(C2(O)CC2)nc1C(F)F)N1CCc2[nH]cnc2[C@@H]1c1cc2c(Cl)cccn2n1` [Example 705, (R)-(4-(4-chloropyrazolo [1,5-a]pyridin-2-yl)-6,7-dihydro-1H-imidazo[4,5-c]pyridin-5(4H)-yl)(4-(difluoromethyl)-2-(1-hydroxycyclopropyl)oxazol-5-yl)methanone], 1 to 5 µM. Same read-out and setting: in the case of `C[C@@H](O)c1nc(C(F)F)c(C(=O)N2CCc3[nH]cnc3[C@@H]2c2cc3c(F)cccn3n2)o1` [Example 711, (4-(difluoromethyl)-2-((R)-1-hydroxyethyl)oxazol-5-yl)((R)-4-(4-fluoropyrazolo [1,5-a]pyridin-2-yl)-6,7-dihydro-1H-imidazo[4,5-c]pyridin-5(4H)-yl)methanone] it was more than 5 µM; in that of `C[C@H](O)c1nc(C(F)F)c(C(=O)N2CCc3[nH]cnc3[C@H]2c2cc3c(F)cccn3n2)o1` [Example 712, (4-(difluoromethyl)-2-((S)-1-hydroxyethyl)oxazol-5-yl)((S)-4-(4-fluoropyrazolo [1,5-a]pyridin-2-yl)-6,7-dihydro-1H-imidazo[4,5-c]pyridin-5(4H)-yl)methanone], less than 0.5 µM; in that of `C[C@H](O)c1nc(C(F)F)c(C(=O)N2CCc3[nH]cnc3[C@@H]2c2cc3c(F)cccn3n2)o1` [Example 713, (4-(difluoromethyl)-2-((S)-1-hydroxyethyl)oxazol-5-yl)((R)-4-(4-fluoropyrazolo [1,5-a]pyridin-2-yl)-6,7-dihydro-1H-imidazo[4,5-c]pyridin-5(4H)-yl)methanone], more than 5 µM.

With `Cn1cc(-c2nnc(C(=O)N3CCc4[nH]cnc4[C@@H]3c3cc4c(F)cccn4n3)o2)cn1` [Example 729, (R)-(4-(4-fluoropyrazolo[1,5-a]pyridin-2-yl)-6,7-dihydro-1H-imidazo[4,5-c]pyridin-5(4H)-yl)(5-(1-methyl-1H-pyrazol-4-yl)-1,3,4-oxadiazol-2-yl)methanone], the AC50 is more than 5 µM. The same measure, in the same setting: in the case of `Cn1ccc(-c2nnc(C(=O)N3CCc4[nH]cnc4[C@H]3c3cc4c(F)cccn4n3)o2)n1` [Example 730, (S)-(4-(4-fluoropyrazolo [1,5-a]pyridin-2-yl)-6,7-dihydro-1H-imidazo[4,5-c]pyridin-5(4H)-yl)(5-(1-methyl-1H-pyrazol-3-yl)-1,3,4-oxadiazol-2-yl)methanone] it was less than 0.5 µM; in that of `O=C(c1nnc(-c2ccccn2)o1)N1CCc2[nH]cnc2[C@@H]1c1cc2c(F)cccn2n1` [Example 732, (R)-(4-(4-fluoropyrazolo [1,5-a]pyridin-2-yl)-6,7-dihydro-1H-imidazo[4,5-c]pyridin-5(4H)-yl)(5-(pyridin-2-yl)-1,3,4-oxadiazol-2-yl)methanone], more than 5 µM.

For `Cc1cccn2nc([C@H]3c4nc[nH]c4CCN3C(=O)c3nnc(-c4ccn(C)n4)o3)cc12` [Example 742, (R)-(5-(1-methyl-1H-pyrazol-3-yl)-1,3,4-oxadiazol-2-yl)(4-(4-methylpyrazolo[1,5-a]pyridin-2-yl)-6,7-dihydro-1H-imidazo [4,5-c]pyridin-5(4H)-yl)methanone], the AC50 is more than 5 µM. As to `CC(C)(O)c1nc(C(F)(F)F)c(C(=O)N2CCc3[nH]cnc3[C@H]2c2cc3c(F)cccn3n2)o1` [Example 744, (S)-(4-(4-fluoropyrazolo[1,5-a]pyridin-2-yl)-6,7-dihydro-1H-imidazo[4,5-c]pyridin-5(4H)-yl)(2-(2-hydroxypropan-2-yl)-4-(trifluoromethyl)oxazol-5-yl)methanone], the concentration at half-maximal activity (AC50) was less than 0.5 µM. Same read-out and setting: in the case of `Cc1nc([C@H](C)O)oc1C(=O)N1CCc2[nH]cnc2[C@@H]1c1cc2c(C)cccn2n1` [Example 751, (2-((S)-1-hydroxyethyl)-4-methyloxazol-5-yl)((R)-4-(4-methylpyrazolo[1,5-a]pyridin-2-yl)-6,7-dihydro-1H-imidazo [4,5-c]pyridin-5(4H)-yl) methanone] it was more than 5 µM; in that of `Cc1nc(C(C)(C)O)oc1C(=O)N1CCc2[nH]cnc2[C@@H]1c1cc2c(C)cccn2n1` [Example 755, (R)-(2-(2-hydroxypropan-2-yl)-4-methyloxazol-5-yl)(4-(4-methylpyrazolo[1,5-a]pyridin-2-yl)-6,7-dihydro-1H-imidazo[4,5-c]pyridin-5(4H)-yl)methanone], more than 5 µM. On the same count and under the same terms, in the case of `Cc1cccn2nc([C@H]3c4nc[nH]c4CCN3C(=O)c3cnco3)cc12` [Example 769, (R)-(4-(4-methylpyrazolo [1,5-a]pyridin-2-yl)-6,7-dihydro-1H-imidazo[4,5-c]pyridin-5(4H)-yl)(oxazol-5-yl)methanone] it was more than 5 µM.

Staying with this test, now noted: A375 cells expressing human R408W PAH; 24 hrs with compound, then sepiapterin and 13C9,15N-Phenylalanine for 4 hours; 13C-Tyrosine by LC-MS; average where tested multiple times; read-out: AC50.
Turning to `O=C(c1cnc(C2CC2)o1)N1CCc2[nH]cnc2C1c1cc2c(F)cccn2n1` (stereo in doubt) [Example 2098, (S)-(2-cyclopropyloxazol-5-yl)(4-(4-fluoropyrazolo[1,5-a]pyridin-2-yl)-1,4,6,7-tetrahydro-5H-imidazo[4,5-c]pyridin-5-yl)methanone], the AC50 was less than 0.5 µM. The same measure, in the same setting: to `CC(C)c1nnc(N2CCc3[nH]cnc3C2c2cc3c(F)cccn3n2)o1` (stereo in doubt) [Example 2323, (S)-2-(4-(4-fluoropyrazolo [1,5-a]pyridin-2-yl)-1,4,6,7-tetrahydro-5H-imidazo [4,5-c]pyridin-5-yl)-5-isopropyl-1,3,4-oxadiazole] belongs 0.5 to 1 µM.
